Data from paper PMC9499525, “Tissue-restricted inhibition of mTOR using chemical genetics” (Proceedings of the National Academy of Sciences of the …, 2022).
Like-named read-outs stand apart in the source and are kept apart here.

Key:
[1] = tested on: mTOR signaling in Flp-In T-REx 293 FKBP12 V55G cells; assay: mTOR signaling by Western blot in FKBP12 V55G-expressing Flp-In 293 cells; assay type: cell-based, human; conditions: for IC50: Homo sapiens, 24 h treatment, mutant (FKBP12 V55G) 293 cells
Procedure: (§1) All cell lines were maintained in DMEM (Gibco) supplemented with 10% heat-inactivated FBS (Axenia Biologix) at 37 °C in 5% CO2. Flp-In T-REx 293 cells were obtained from Thermo Fisher supplemented with 15 µg/mL blasticin and 100 µg/mL Zeocin. Flp-In T-REx 293 FKBP12 V55G cells were supplemented with 15 µg/mL blasticin and 150 µg/mL hygromycin B. FKBP12 V55G expression was induced with 1 µg/mL doxycycline 24 h prior to drug treatments. MCF7 cells were obtained from ATCC (American Type Culture Collection), and MCF7 mTOR F2108L cells were described previously ([30]). When indicated, cells were treated with drugs at 60–80% confluency at a final DMSO concentration of 0.1%. At the end of the treatment period, cells were placed on ice and washed once with PBS. Cells were scraped with a spatula and lysed in radioimmunoprecipitation assay (RIPA) buffer supplemented with protease and phosphatase inhibitors (cOmplete and phosSTOP, Roche) on ice for 5 min. Lysates were clarified by high-speed centrifugation. Lysate concentration was determined by Bradford assay (Thermo Fisher) and adjusted to 2 mg/mL with additional RIPA buffer. Samples were mixed with 5x SDS loading dye and heated at 95 °C for 5 min.
SDS-PAGE was run with Novex 4–12% Bis-Tris gel (Invitrogen) in MOPS running buffer at 200V for 40 min. Samples were loaded at 20 µg lysate per lane. Protein bands were transferred onto 0.2 µm nitrocellulose membranes (Bio-Rad) using wet tank transfer apparatus (Bio-Rad Criterion Blotter) in 1x TOWBIN buffer with 10% methanol at 75V for 45 min. Membranes were blocked in 5% BSA-TBST (tris-buffered saline, 0.1% Tween 20) for 1 h at room temperature. Membranes were cut into separate strips for each primary antibody. Primary antibody binding was performed with the indicated antibodies at manufacturer’s recommended dilution in 5% BSA-TBST at 4 °C overnight. After three 5 min. washes with TBST, secondary antibodies (Li-COR) were added as solutions in 5% skim milk-TBST at 1:10,000 dilutions. Secondary antibodies were incubated for 1 h at room temperature. Following three 5 min. washes with TBST, membranes were imaged on a Li-COR Odyssey fluorescence imager. Image contrast was adjusted independently for each strip using the “Auto” adjustment function in Fiji. Blot quantification was performed in Fiji, and data were graphed and fit in Prism 9 (GraphPad). The following primary antibodies were obtained from Cell Signaling Technology (CST), Abcam (ab), and ProteinTech (PT): S6 (CST 2317), phospho-S6 S240/244 (CST 5364), S6K (CST 2708), phospho-S6K T389 (CST 9206), Akt (CST 2920), phospho-Akt S473 (CST 4060), HA (CST 3724), FKBP12 (ab58072), and GAPDH (PT 60004). For detection of phosphorylated and total protein, primary antibodies for phospho-Akt/Akt, phospho-S6K/S6K, or phospho-S6/S6 were combined and detected using a mixture of species-specific secondary antibodies with orthogonal fluorescence to allow simultaneous detection of phosphorylated and total protein from a single membrane, or membrane was stripped (Cell Signaling Technology) after detection of phosphorylated protein and then reblocked and reprobed with primary antibody for total protein. […]
Generation of 293 Flp-In T-REx FKBP12 V55G cell line
FKBP12 V55G-expressing Flp-In T-REx 293 cells were generated using recommended conditions from Thermo Fisher. Briefly, human FKBP12 V55G-HA coding sequence was cloned into the pcDNA5/FRT/TO targeting vector by Gibson assembly. […]

[2] = tested on: mTOR signaling in Flp-In T-REx 293 cells; assay: mTOR signaling by Western blot in parental (wild-type) Flp-In 293 cells; assay type: cell-based, human; conditions: for IC50: Homo sapiens, 24 h treatment, wild-type 293 cells
Procedure: as §1
SDS-PAGE was run with Novex 4–12% Bis-Tris gel (Invitrogen) in MOPS running buffer at 200V for 40 min. Samples were loaded at 20 µg lysate per lane. […] Following three 5 min. washes with TBST, membranes were imaged on a Li-COR Odyssey fluorescence imager. […] Blot quantification was performed in Fiji, and data were graphed and fit in Prism 9 (GraphPad). […] For detection of phosphorylated and total protein, primary antibodies for phospho-Akt/Akt, phospho-S6K/S6K, or phospho-S6/S6 were combined and detected using a mixture of species-specific secondary antibodies with orthogonal fluorescence to allow simultaneous detection of phosphorylated and total protein from a single membrane, or membrane was stripped (Cell Signaling Technology) after detection of phosphorylated protein and then reblocked and reprobed with primary antibody for total protein.

CCO/N=C1/C[C@@H]([C@H](C)C[C@@H]2CC[C@@H](O)[C@H](OC)C2)OC(=O)[C@@H]2CCCCN2C(=O)C(=O)[C@]2(O)O[C@@H](CC[C@H]2C)C[C@H](OC)/C(C)=C/C=C/C=C/[C@@H](C)C[C@@H](C)C(=O)[C@H](OC)[C@H](O)/C(C)=C/[C@H]1C [Rapa*-3Z]
Time to half-maximal inhibition of S6 phosphorylation ([1]; 10 nM, mutant FKBP12 293 cells): 31 min | Akt phosphorylation (mTORC2 substrate) ([1]; 24 h, mutant vs wild-type 293 cells): selectively reduced Akt phosphorylation in the mutant 293 cells at higher doses | IC50 ([1]; read-out: IC50 phospho-S6): 1.3 nM | IC50 ([1]; read-out: IC50 phospho-S6K): 1 nM | Increase in sensitivity in mutant-expressing cells vs wild-type cells ([1]; p-S6K and p-S6 IC50s, 24 h): ~100 fold | mTOR signaling in wild-type 293 cells ([2]; 10 nM, time course): unaffected | IC50 ([2]; read-out: IC50 phospho-S6): 121 nM | IC50 ([2]; read-out: IC50 phospho-S6K): 76 nM
